This is an account of results in patent US20190119282A1, “IMIDAZOPYRIDAZINES USEFUL AS INHIBITORS OF THE PAR-2 SIGNALING PATHWAY” (Vertex Pharmaceuticals Incorporated, priority 2013, published 2019).

pIC50: −log10 of the molar value. A value given as a limit tells only on which side of the number the result lay.

As usually defined, the pIC50 is the IC50 on a negative log10 scale, so that one unit is a factor of ten.

In assay [1] the test system is UTP-stimulated Ca2+ response in HT-29 cells. Kind of assay: Ca FLIPR TETRA assay, ANTAGONIST mode, stimulation with 0.6 μM UTP. Conditions: Homo sapiens; HT-29 cells, stimulation with 0.6 μM UTP. The format is cell-based, human. A digest of the protocol:
(§1)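 HT-29 cells in 1% FBS/McCoy's overnight, loaded with Calcium 5 dye; compounds added and read first for intrinsic Ca2+ activation, then incubated 30 min at r.t. Antagonism read on FLIPR Tetra after stimulation with final 8 μM SLIGKV, 3.1 U/mL trypsin, 1 U/mL thrombin or 0.6 μM UTP.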

The target of assay [2] is T1, PAR2 (HT-29 cells, SLIGKV activation) (Homo sapiens, UniProt P55085).
T1 construct: host or cells: HT-29 cells
T1 sequence (P55085 26-397): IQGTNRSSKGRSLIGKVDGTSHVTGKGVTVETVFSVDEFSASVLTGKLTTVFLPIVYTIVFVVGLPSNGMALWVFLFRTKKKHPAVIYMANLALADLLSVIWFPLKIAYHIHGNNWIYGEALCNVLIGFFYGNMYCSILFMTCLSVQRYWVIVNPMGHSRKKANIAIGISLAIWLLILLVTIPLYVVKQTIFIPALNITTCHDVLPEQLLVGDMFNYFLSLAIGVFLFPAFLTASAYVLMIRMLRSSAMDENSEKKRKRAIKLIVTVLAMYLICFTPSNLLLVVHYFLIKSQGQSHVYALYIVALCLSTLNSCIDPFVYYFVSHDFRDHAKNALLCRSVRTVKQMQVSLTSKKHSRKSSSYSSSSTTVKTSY
Nature of the assay: Ca FLIPR TETRA assay, ANTAGONIST mode, stimulation with 8 μM SLIGKV. The format is cell-based. Conditions: for pIC50: HT-29 cells, stimulation with 8 μM SLIGKV. The procedure, abridged: as §1

The subject of assay [3] is Thrombin-stimulated Ca2+ response in HT-29 cells. Nature of the assay: Ca FLIPR TETRA assay, ANTAGONIST mode, stimulation with 1 U/mL Thrombin. The format is cell-based, human. As to conditions: Homo sapiens; HT-29 cells, stimulation with 1 U/mL Thrombin. A digest of the protocol: as §1
The target in assay [4] is T2, PAR2 (HT-29 cells, trypsin activation) (Homo sapiens, UniProt P55085).
T2 construct: host or cells: HT-29 cells
T2 sequence (P55085 26-397): T1 sequence (P55085 26-397)
Nature of the assay: Ca FLIPR TETRA assay, ANTAGONIST mode, stimulation with 3.1 U/mL trypsin. The format is cell-based. Conditions: HT-29 cells, stimulation with 3.1 U/mL trypsin. The procedure, abridged: as §1

As to `CC1(C)CN(C(=O)C2(O)CCC2)CCN1C(=O)c1cn2nc(-c3ccc(F)cc3)cc(C(F)(F)F)c2n1` [Compound I-37, [6-(4-Fluorophenyl)-8-(trifluoromethyl)imidazo[1,2-b]pyridazin-2-yl]-[4-(1-hydroxycyclobutanecarbonyl)-2,2-dimethyl-piperazin-1-yl]methanone], the pIC50 in assay [1] was < 4.30; in assay [2] it was 6.70; in assay [3], < 4.30; in assay [4], 6.60.

`CC1(C)CN(C(=O)C2(O)CCOCC2)CCN1C(=O)c1cn2nc(-c3ccc(F)cc3)cc(C(F)(F)F)c2n1` [Compound I-38, [6-(4-Fluorophenyl)-8-(trifluoromethyl)imidazo[1,2-b]pyridazin-2-yl]-[4-(4-hydroxytetrahydropyran-4-carbonyl)-2,2-dimethyl-piperazin-1-yl]methanone]: the pIC50 in assay [1] was < 4.35; in assay [2], 6.41; in assay [3] it was < 4.30; in assay [4], 6.32.

For the compound `C[C@H](O)C(=O)N1CCN(C(=O)c2cn3nc(-c4ccc(F)cc4)cc(C(F)(F)F)c3n2)C(C)(C)C1` [Compound I-39, (2S)-1-[4-[6-(4-Fluorophenyl)-8-(trifluoromethyl)imidazo[1,2-b]pyridazine-2-carbonyl]-3,3-dimethyl-piperazin-1-yl]-2-hydroxy-propan-1-one], the pIC50 in assay [1] was < 4.30; in assay [2], 6.08; in assay [3] it was < 4.30; in assay [4] it was 6.07.

In the case of `CC(C)c1cc(C2=CCCCC2)nn2cc(C(=O)N3CCN(C(=O)C4(O)CCC4)CC3(C)C)nc12` [Compound I-40, [6-(Cyclohexen-1-yl)-8-isopropyl-imidazo[1,2-b]pyridazin-2-yl]-[4-(1-hydroxycyclobutanecarbonyl)-2,2-dimethyl-piperazin-1-yl]methanone], the pIC50 in assay [1] was 4.77; in assay [2] it was 7.14; in assay [3], 4.62; in assay [4] it was 6.43.

On to `CC(C)c1cc(C2CCCCC2)nn2cc(C(=O)N3CCN(C(=O)C4(O)CCC4)CC3(C)C)nc12` [Compound I-41, (6-Cyclohexyl-8-isopropyl-imidazo[1,2-b]pyridazin-2-yl)-[4-(1-hydroxycyclobutanecarbonyl)-2,2-dimethyl-piperazin-1-yl]methanone], for which the pIC50 in assay [1] was 4.68; in assay [2], 7.21; in assay [3] it was 4.70; in assay [4] it was 6.55.

On to `CC(C)c1cc(C#CC2CC2)nn2cc(C(=O)N3CCN(C(=O)C4(O)CCC4)CC3(C)C)nc12` [Compound I-42, [6-(2-Cyclopropylethynyl)-8-isopropyl-imidazo[1,2-b]pyridazin-2-yl]-[4-(1-hydroxycyclobutanecarbonyl)-2,2-dimethyl-piperazin-1-yl]methanone], for which the negative logarithm of the IC50 (pIC50) was 4.39 in assay [1], 5.66 in assay [2], 4.49 in assay [3] and 5.28 in assay [4].

For the compound `CC(C)c1cc(C2=CCCC2)nn2cc(C(=O)N3CCN(C(=O)C4(O)CCC4)CC3(C)C)nc12` [Compound I-43, [6-(Cyclopenten-1-yl)-8-isopropyl-imidazo[1,2-b]pyridazin-2-yl]-[4-(1-hydroxycyclobutanecarbonyl)-2,2-dimethyl-piperazin-1-yl]methanone], the pIC50 was 4.51 in assay [1], 6.32 in assay [2], 4.57 in assay [3] and 5.96 in assay [4].

In the case of `CC(C)c1cc(C2=CCOCC2)nn2cc(C(=O)N3CCN(C(=O)C4(O)CCC4)CC3(C)C)nc12` [Compound I-44, [6-(3,6-dihydro-2H-pyran-4-yl)-8-isopropyl-imidazo[1,2-b]pyridazin-2-yl]-[4-(1-hydroxycyclobutanecarbonyl)-2,2-dimethyl-piperazin-1-yl]methanone], the pIC50 is < 4.30 in assay [1], 5.30 in assay [2], < 4.30 in assay [3] and 5.02 in assay [4].

As to `CC(C)c1cc(C2CCOCC2)nn2cc(C(=O)N3CCN(C(=O)C4(O)CCC4)CC3(C)C)nc12` [Compound I-45, [4-(1-hydroxycyclobutanecarbonyl)-2,2-dimethyl-piperazin-1-yl]-(8-isopropyl-6-tetrahydropyran-4-yl-imidazo[1,2-b]pyridazin-2-yl)methanone], the pIC50 in assay [1] was < 4.30; in assay [2], 4.70; in assay [3], < 4.30; in assay [4], < 4.30.

On to `C[C@H]1CN(C(=O)c2cn3nc(-c4ccc(F)cc4)cc(C(F)(F)F)c3n2)CCN1C(=O)OCc1ccccc1` [Compound I-46], for which the pIC50 in assay [1] was < 5.30; in assay [2], 7.40; in assay [3] it was < 5.30; in assay [4], 7.02.

Take `O=C(c1cn2nc(-c3ccc(F)cc3)cc(C(F)(F)F)c2n1)N1CCCCC1CO` (centres unmarked) [Compound I-47]: the pIC50 in assay [1] was 4.49; in assay [2], 5.51; in assay [3] it was 4.80; in assay [4], 5.12.

As for `COC(=O)[C@@H]1C[C@@H](C)CN(C(=O)c2cn3nc(-c4ccc(F)cc4)cc(C(F)(F)F)c3n2)C1` [Compound I-49], the negative logarithm of the IC50 (pIC50) in assay [1] was 5.22; in assay [2], 6.28; in assay [3], 5.28; in assay [4] it was 5.82.

Consider `O=C(c1cn2nc(-c3ccc(F)cc3)cc(C(F)(F)F)c2n1)N1CCN(C(=O)N2CCCCC2)CC1` [Compound I-50], for which the pIC50 in assay [1] is < 4.30; in assay [3], < 4.30; in assay [4], 4.57. The “SLIGKV % @ concentration” value in assay [2] (@ 1.9 (μM)) was 44% @ 1.9.

For the compound `CC(C)(C)C[C@@H](O)C(=O)N1CCN(C(=O)c2cn3nc(-c4ccc(F)cc4)cc(C(F)(F)F)c3n2)CC1` [Compound I-52], the pIC50 in assay [1] was 4.80; in assay [2] it was 6.85; in assay [3] it was 4.33; in assay [4] it was 6.46.

In the case of `O=C(OCc1ccccc1)N1CCN(C(=O)c2cn3nc(-c4ccc(F)cc4)cc(C(F)(F)F)c3n2)CC1` [Compound I-53], the negative logarithm of the IC50 (pIC50) in assay [1] was < 4.30; in assay [3], < 4.30; in assay [4], 4.68. In addition, in assay [2] (@ 5.6 (μM)), the “SLIGKV % @ concentration” value is listed as 55% @ 5.6.

Turning to `CC(C(=O)NC1CC1)N1CCN(C(=O)c2cn3nc(-c4ccc(F)cc4)cc(C(F)(F)F)c3n2)CC1` (centres unmarked) [Compound I-55], the pIC50 in assay [1] is < 4.30; in assay [2] it was 6.02; in assay [3], < 4.30; in assay [4], 5.51.

For `O=C(c1cn2nc(-c3ccc(F)cc3)cc(C(F)(F)F)c2n1)N1CCN(CCn2ccnc2)CC1` [Compound I-56], the pIC50 in assay [1] was < 4.30; in assay [2], 4.64; in assay [3], < 4.30; in assay [4], < 4.30.

Take `CCS(=O)(=O)N1CCN(C(=O)c2cn3nc(-c4ccc(F)cc4)cc(C(F)(F)F)c3n2)CC1` [Compound I-57]: the pIC50 was < 4.30 in assay [1], 6.23 in assay [2], < 4.30 in assay [3] and 4.32 in assay [4].

For `CCC(=O)N1CCN(C(=O)c2cn3nc(-c4ccc(F)cc4)cc(C(F)(F)F)c3n2)CC1` [Compound I-59], the pIC50 in assay [1] was < 4.30; in assay [2] it was 4.66; in assay [3], < 4.30; in assay [4], 5.70.

On to `Cc1cc(-c2ccc(F)cc2)nn2cc(C(=O)N3CCC(C#N)CC3)nc12` [Compound I-60], for which the pIC50 in assay [1] was 4.40; in assay [2], 5.10; in assay [3] it was 4.49; in assay [4], 4.85.

Turning to `Cc1cc(-c2ccc(F)cc2)nn2cc(C(=O)N3CCCC4(COC4)C3)nc12` [Compound I-61], the negative logarithm of the IC50 (pIC50) was 4.42 in assay [1], 4.89 in assay [2], 4.59 in assay [3] and 4.72 in assay [4].

`CCOC1CCN(C(=O)c2cn3nc(-c4ccc(F)cc4)cc(C)c3n2)CC1` [Compound I-62]: the pIC50 is 4.36 in assay [1], 5.13 in assay [2], 4.42 in assay [3] and 4.54 in assay [4].

For the compound `CCNC(=O)OC1CCN(C(=O)c2cn3nc(-c4ccc(F)cc4)cc(C)c3n2)CC1` [Compound I-63], the pIC50 in assay [1] is 4.43; in assay [2], 6.00; in assay [3], 4.46; in assay [4], 5.39.

Turning to `COC(=O)[C@@H]1CCN(C(=O)c2cn3nc(-c4ccc(F)cc4)cc(C(F)(F)F)c3n2)C[C@@H]1C` [Compound I-64], the pIC50 is 4.38 in assay [1], 6.96 in assay [2], 5.24 in assay [3] and 6.66 in assay [4].

As to `O=C1CCN(C(=O)c2cn3nc(-c4ccc(F)cc4)cc(C(F)(F)F)c3n2)CC1` [Compound I-66], the pIC50 in assay [1] was < 4.30; in assay [2] it was 5.30; in assay [3], 4.32; in assay [4], 4.92.

With `O=C(c1cn2nc(-c3ccc(F)cc3)cc(C(F)(F)F)c2n1)N1CCCCC1c1ccncc1` (centres unmarked) [Compound I-67], the pIC50 in assay [1] was 5.09; in assay [2], 5.51; in assay [3], 5.17; in assay [4], 5.44.
